Where two headings read alike, the source gives them in different places.
Experiments:
DND41 cells = test: MTS cell proliferation assay (IG50), DND41; type: cell-based, human; settings: for effect on cell proliferation: doses of up to 50 μM
Description: In order to evaluate the biological implications of the compounds, their effect on cell proliferation/vitality was tested by determining the relative concentrations of growth inhibition (IG50) by means of the MTS cellular assay.
The cell lines DND41 (ACC 525, DSMZ, Braunschweig, GERMANY), KOPTK1 (RRID: CVCL_4965) were maintained in culture in RPMI-1640 (Gibco, Carlsbad, Calif., USA) with 10% fetal bovine serum. TALL-1 cells (ACC-521: DSMZ, Braunschweig, GERMANY) were cultured in RPMI-1640 (Gibco, Carlsbad, Calif., USA) supplemented with 20% fetal bovine serum, while HaCaT cells (ACC-771: DSMZ, Braunschweig, GERMANY) were maintained in Eagle's culture medium according to Dulbecco (Gibco, Carlsbad, Calif., USA) containing 10% fetal bovine serum. Cells were treated with the naturally-occurring compounds A-H or with compounds 1-17 for times and concentrations indicated in the text.
Cells were seeded in 96-well plates with a density of 5×10^5 cells/ml (5×10^4 cells per well) and treated for the times and the concentrations of the various compounds, as indicated in the text.
All treatments were carried out in triplicate, including control treatments. All treatment reactions contained a final concentration of 1% DMSO (D5879; Sigma-Aldrich, St Louis, Mo., USA). To quantify vitality, cells were assayed by the MTS CellTiter 96® AQueous One Solution Cell Proliferation Assay (G3580; Promega, Madison, Wis., USA). Absorbance was detected at 490 nm using the GloMax Multidetection System instrument (Promega, Madison, Wis., USA). Data were collected in the form of absorbance units (ABSs) and standardized to obtain the proliferation rate (MTS) through the equation: % cell proliferation=(ABScell culture+compound−ABSculture medium+compound/(ABScell culture+DMSO−ABSculture medium+DMSO)×100.
The 50% inhibition concentration was calculated using the GraphPad Prism software program (GraphPad Software Inc., La Jolla, Calif., USA).

[1] = tested on: Notch signaling (N1VAL, N3ICD) in DND41 cells; test: Western blot of N1VAL and N3ICD expression in DND41 cells; type: cell-based, human; settings: for effect on the expression of N1VAL / concentration at which expression of N1VAL and N3ICD is decreased: DND41 cells, 36 hours, Western blot; for effect on the expression of N1VAL: 0-50 μM
Description: In order to identify new naturally-occurring molecular agents able to modulate Notch signaling, the effects on protein expression of the activated domain of Notch1 (N1VAL), and of the intracellular domain of Notch3 (N3ICD), were evaluated in DND41 cells through
Western blotting assays, following treatment for 36 hours with increasing concentrations (0, 1, 5, 10, 20, 50 μM) of the eight molecules (A-H) previously selected. Functional biochemical screening was performed on T-ALL DND41 cells because they are notoriously sensitive to the block of Notch signaling, and characterized by the constitutive and ligand-independent activation of the Notch1 pathway and by the high expression of Notch3. This makes this cell line a useful experimental model for screening putative Notch inhibitors.
In order to investigate the activity and selectivity of action of the 12 synthetic derivatives of butein, and following the screening scheme described in the first design phase, the efficacy of these molecules was analyzed by verifying the effects of 36 hours of treatment at increasing doses on the activation of Notch signaling and on the proliferation in DND41 cells.
Laemmli Sample Buffer (161-0737; Bio-Rad Laboratories Inc., Hercules, Calif., USA) was added to each cell pellet. Cells were lysed by ultrasonic sonication and to each mixture 5% 2-mercaptoethanol (161-0710; Bio-Rad Laboratories Inc., Hercules, Calif., USA) was added. Samples were denatured at 100° C. for 5 min and protein mixtures were separated by means of Sodium Dodecyl Sulphate-Polyacrylamide Gel Electrophoresis using 8% acrylamide and transferred onto nitrocellulose membranes. After transfer, the membranes pre-saturated in 5% Blot Dry Fat Milk (1706404; Bio-Rad Laboratories Inc., Hercules, Calif., USA) were incubated for 16 hours at +4° C. with the following primary antibodies diluted at 1:1000 in 5% Dry Fat Milk (1706404; Bio-Rad Laboratories Inc., Hercules, Calif., USA): Notch1Val1744 (2421; Cell Signaling Technology, Beverly, Mass., USA), Notch3 (2889; Cell Signaling Technology, Beverly, Mass., USA) and β-actin (sc-47778; Santa Cruz Biotechnology, Santa Cruz, Calif., USA). Subsequently, filters were incubated for 1 hour at room temperature with the following secondary antibodies: anti-rabbit (sc-2004, Santa Cruz Biotechnology, Santa Cruz, Calif., USA) or anti-mouse (sc-2005, Santa Cruz Biotechnology, Santa Cruz, Calif., USA). Chemiluminescence signal detection was performed using the ECL Advanced Detection System substrate (RPN2135; E Healthcare UK Limited, Buckinghamshire, UK).

[2] = Homo sapiens, 36-hour treatments in DND41 cells, mean of triplicate experiments ± S.D., Table 1, read-out: IG50 S.D.
[3] = Homo sapiens, 36-hour treatments in DND41 cells, mean of triplicate experiments ± S.D., Table 2, read-out: IG50 ± S.D.
[4] = Homo sapiens, DND41 cells, MTS assay, 36 hours of treatment, read-out: IG50 (growth inhibition)

`CC(C)(O)C1Cc2c(ccc3ccc(=O)oc23)O1` (stereo in doubt) [Compound E, (8R)-8-(2-hydroxypropane-2-yl)-8,9-dihydrofuran[2,3-h]chromen-2-one, reference compound] was tested, and the “effect on cell proliferation” value (DND41 cells; DND41 cells) was “do not significantly affect cell proliferation”, the IC50 (DND41 cells; [2]) was > 50 µM and the “effect on the expression of N1VAL” value [1] was “did not significantly modulate”.
Work on `COc1ccc(C(=O)/C=C/c2ccc(OC)c(OC)c2)c(OC)c1` [Compound 1, 2′,3,4,4′-tetramethoxychalcone] yielded an IC50 (DND41 cells; [3]) of 15 ± 3.04 µM.
`COc1ccc(C(=O)/C=C/c2ccc(OC)c(OC)c2)c(O)c1` [Compound 2, 2′-hydroxy-3,4,4′-trimethoxychalcone] gave an IC50 (DND41 cells; [3]) of 31 ± 5.98 µM.
In the case of `COc1ccc(/C=C/C(=O)c2ccc(OC)cc2O)cc1` [Compound 3, 2′-hydroxy-4,4′-dimethoxychalcone], the IC50 (DND41 cells; [3]) is reported as 47.5 ± 1.14 µM.
With `COc1ccc(/C=C/C(=O)c2ccc(OC)cc2OC)cc1` [Compound 4, 2′,4,4′-trimethoxychalcone] the IC50 (DND41 cells; [3]) was 14.4 ± 2.56 µM.
`COc1ccc(C(=O)/C=C/c2ccc(OC)c(O)c2)c(O)c1` [Compound 5, 2′,3-dihydroxy-4,4′-dimethoxychalcone] showed an IC50 (DND41 cells; [3]) of 36.2 ± 10.6 µM.
For `COc1ccc(C(=O)/C=C/c2ccc(OC)c(OC3CCCCO3)c2)c(O)c1` (centres unmarked) [Compound 5a, 2′-hydroxy-4,4′-dimethoxy-3-(tetrahydropyran-2-yloxy) chalcone], the IC50 (DND41 cells; [3]) was > 50 µM.
With `COc1ccc(/C=C/C(=O)c2ccc(OC3CCCCO3)cc2O)cc1OC` (centres unmarked) [Compound 6a, 2′-hydroxy-3,4-dimethoxy-4′-(tetrahydropyran-2-yloxy)chalcone] the IC50 (DND41 cells; [3]) was > 50 µM.
`COc1ccc(C(=O)/C=C/c2ccc(O)c(OC)c2)c(O)c1` [Compound 7, 2′,4-dihydroxy-3,4′-dimethoxychalcone] was tested, and the IC50 (DND41 cells; [3]) was 33.1 ± 1.89 µM.
`COc1ccc(C(=O)/C=C/c2ccc(OC3CCCCO3)c(OC)c2)c(O)c1` (centres unmarked) [Compound 7a, 2′-hydroxy-3,4′-dimethoxy-4-(tetrahydropyran-2-yloxy)chalcone] was tested, and the IC50 (DND41 cells; [3]) was 24.4 ± 1.76 µM.
In the case of `COc1ccc(C(=O)/C=C/c2ccc(OC3CCCCO3)cc2)c(O)c1` (centres unmarked) [Compound 8a, 2′-hydroxy-4′-methoxy-4-(tetrahydropyran-2-yloxy)chalcone], the IC50 (DND41 cells; [3]) is reported as 48.5 ± 3.42 µM.
In the case of `COc1ccc(C(=O)CCc2ccc(O)cc2)c(O)c1` [Compound 8b, 2′,4-dihydroxy-4′-methoxydihydrochalcone], the IC50 (DND41 cells; 36-hour treatments in DND41 cells, mean of triplicate experiments ± S.D., Table 2, read-out: IG50 ± S.D.) is reported as > 50 µM.
`COc1ccc(C(=O)/C=C/c2ccccc2)c(O)c1` [Compound 9, 2′-hydroxy-4′-methoxychalcone] was tested, and the IC50 (DND41 cells; [3]) was 11.1 ± 0.59 µM.
Work on `COc1cccc(/C=C/C(=O)c2ccc(OC)cc2O)c1` [Compound 10, 2′-hydroxy-3,4′-dimethoxychalcone] yielded an IC50 (DND41 cells; [3]) of 21.3 ± 1.72 µM.
For `COc1ccc(C(=O)/C=C/c2cccc(O)c2)c(O)c1` [Compound 11, 2′,3-dihydroxy-4′-methoxychalcone], the IC50 (DND41 cells; [3]) was 13.6 ± 1.76 µM.
Work on `COc1ccc(C(=O)/C=C/c2cccc(OC3CCCCO3)c2)c(O)c1` (centres unmarked) [Compound 11a, 2′-hydroxy-4′-methoxy-3-(tetrahydropyran-2-yloxy)chalcone] yielded an IC50 (DND41 cells; [3]) of 17.4 ± 1.2 µM.
Molecule `COc1ccc(C(=O)/C=C/c2ccccc2O)c(O)c1` [Compound 12, 2,2′-dihydroxy-4′-methoxychalcone] has an IC50 (DND41 cells; [3]) of 14.2 ± 0.58 µM.
Work on `COc1ccc(C(=O)/C=C/c2ccccc2OC)c(O)c1` [Compound 13, 2′-hydroxy-2,4′-dimethoxychalcone] yielded an IC50 (DND41 cells; [3]) of 21.8 ± 1.78 µM.
In the case of `O=C(/C=C/c1ccc(O)cc1)c1ccccc1O` [Compound 14, 2′,4-dihydroxychalcone], the IC50 (DND41 cells; [3]) is reported as 16.5 ± 0.9 µM.
Molecule `O=C(/C=C/c1ccc(OC2CCCCO2)cc1)c1ccccc1O` (centres unmarked) [Compound 14a, 2′-hydroxy-4-(tetrahydropyran-2-yloxy)chalcone] has an IC50 (DND41 cells; [3]) of 48.6 ± 3.42 µM.
In the case of `COc1ccccc1C(=O)/C=C/c1ccc(O)cc1` [Compound 15, 4-hydroxy-2′-methoxychalcone], the IC50 (DND41 cells; [3]) is reported as 16.8 ± 2.71 µM.
`COc1ccccc1C(=O)/C=C/c1ccc(OC2CCCCO2)cc1` (centres unmarked) [Compound 15a, 2′-methoxy-4-(tetrahydropyran-2-yloxy)chalcone] showed an IC50 (DND41 cells; [3]) of 31.5 ± 1.46 µM.
`COc1ccc(C(=O)/C=C/c2ccc(O)cc2)c(OC)c1` [Compound 16, 4-hydroxy-2′,4′-dimethoxychalcone] was tested, and the IC50 (DND41 cells; [3]) was 13.8 ± 0.61 µM, the IC50 (DND41 cells; [4]) was > 13 µM and the “concentration at which expression of N1VAL and N3ICD is decreased” value [1] was 2.5 µM.
`COc1ccc(C(=O)/C=C/c2ccc(OC3CCCCO3)cc2)c(OC)c1` (centres unmarked) [Compound 16a, 2′,4′-dimethoxy-4-(tetrahydropyran-2-yloxy)chalcone] was tested, and the IC50 (DND41 cells; [3]) was 32.6 ± 0.92 µM.
With `COc1ccc(C(=O)/C=C/c2ccc(O)cc2)cc1` [Compound 17, 4-hydroxy-4′-methoxychalcone] the IC50 (DND41 cells; [3]) was 19.5 ± 0.56 µM, the IC50 (DND41 cells; [4]) was > 13 µM and the “concentration at which expression of N1VAL and N3ICD is decreased” value [1] was 2.5 µM.
For `COc1ccc(C(=O)/C=C/c2ccc(OC3CCCCO3)cc2)cc1` (centres unmarked) [Compound 17a, 4′-methoxy-4-(tetrahydropyran-2-yloxy)chalcone], the IC50 (DND41 cells; [3]) was 28.8 ± 0.29 µM.
With `O=C1c2c(O)cc(O)cc2O[C@H](c2ccc(O)c(O)c2)[C@H]1O` [Compound A, (2R,3R)-2-(3,4-dihydroxyphenyl)-3,5,7-trihydroxy-2,3-dihydrochromen-4-one, reference compound] the “effect on cell proliferation” value (DND41 cells; DND41 cells) was “do not significantly affect cell proliferation” and the IC50 (DND41 cells; [2]) was > 50 µM.
With `CC(C)=CCc1c(O)ccc(C(=O)/C=C/c2ccc(O)cc2)c1O` [Compound B, (E)-1-[2,4-dihydroxy-3-(3-methylbut-2-enyl)phenyl]-3-(4-hydroxyphenyl) prop-2-en-1-one, reference compound] the IC50 (DND41 cells; [2]) was 13.9 µM, the IC50 (DND41 cells; [4]) was 13.9 ± 2.7 µM and the “inhibitory activity of Notch” value ([1]; screening carried out by the present inventors) was “did not show any inhibitory activity”.
`O=C(/C=C/c1ccc(O)c(O)c1)c1ccc(O)cc1O` [Compound C, (E)-1-(2,4-dihydroxyphenyl)-3-(3,4-dihydroxyphenyl)prop-2-en-1-one, reference compound] was tested, and the IC50 (DND41 cells; [2]) was 7.79 µM and the IC50 (DND41 cells; [4]) was 7.79 ± 1.73 µM.
`COc1c2occc2cc2ccc(=O)oc12` [Compound D, 9-methoxyfuran[3,2-g]chromen-7-one, reference compound] was tested, and the “effect on cell proliferation” value (DND41 cells; DND41 cells) was “do not significantly affect cell proliferation”, the IC50 (DND41 cells; [2]) was > 50 µM and the “effect on the expression of N1VAL” value [1] was “did not significantly modulate”.
For `COc1ccc2oc3cccc(O)c3c(=O)c2c1` [Compound F, 1-hydroxy-7-methoxy-9H-xanthen-9-one, reference compound], the “effect on cell proliferation” value (DND41 cells; DND41 cells) was “do not significantly affect cell proliferation”, the IC50 (DND41 cells; [2]) was > 50 µM and the “effect on the expression of N1VAL” value [1] was “did not significantly modulate”.
`O=c1c(O)c(-c2ccccc2)oc2cc(O)cc(O)c12` [Compound H, 3,5,7-trihydroxy-2-phenylchromen-4-one, reference compound] was tested, and the IC50 (DND41 cells; [2]) was 22.6 µM and the IC50 (DND41 cells; [4]) was 22.6 ± 1.89 µM.
